Patent US9771430B2, “Method of treating a metabolic disorder induced by obesity in a subject in need thereof by administering MK2/3 inhibitors” (THE TRUSTEES OF COLUMBIA UNIVERSITY IN THE CITY OF NEW YORK, priority 2011, dated 2017)

How the values were obtained:
CaMKII = format: cell-based, mouse
Procedure: FIG. 1A. CaMKII enzyme activity was assayed in triplicate wells of primary mouse HCs stimulated with 100 nM glucagon (Gluc) or vehicle control (Veh) for the indicated times (*P<0.05 and **P<0.01 vs. Veh; mean±S.E.M.). FIGS. 1B-1J. Extracts of HCs or liver were probed for phospho-CaMKII, total CaMKII, and β-actin by immunoblot assay. FIG. 1B. HCs were incubated with […] glucagon for the indicated times; FIG. 1C. Glucagon was added to HCs that were pre-treated for 1 h with vehicle control (Veh) or 5 μM BAPTA-AM; FIG. 1D. Glucagon was added to HCs that were pre-treated with 0.5 μM xestospongin (XesC) or to HCs from Ip3r1fl/fl mice transduced with adeno-LacZ control or adeno-Cre (bar graph=Ip3r1 mRNA levels); FIG. 1E. Glucagon was added to HCs that were pre-treated for 1 h with vehicle control (Veh) or 10 μM H89. FIG. 1F. […] FIGS. 1G-1J. In vivo experiments. In FIG. 1G, mice were treated for 30 min with 200 μg kg−1 body weight of glucagon i.p., and in FIG. 1H, mice were pre-treated with 10 pmol g−1 xestospongin C or vehicle control i.p. 4 days prior to glucagon treatment. In FIGS. 1I-1J, mice were fed ad libitum or fasted for 12 h, or fasted for 12 h and then re-fed for 4 h.
Total RNA was extracted from hepatocytes using the RNeasy kit (Qiagen). cDNA was synthesized from 2 μg total RNA using oligo (dT) and Superscript II (Invitrogen). Real-time qPCR analysis and western blotting were performed as previously described (Timmins et al., 2009). Nuclear extraction from liver was performed using the Nuclear Extraction Kit from Panomics according to the manufacturer's instructions.
Immunoblot and RT-qPCR assays were performed as previously described (Timmins et al., 2009). Total RNA was extracted from HCs using the RNeasy kit (Qiagen). cDNA was synthesized from 2 μg total RNA using oligo (dT) and Superscript II (Invitrogen). Nuclear extraction from liver was performed using the Nuclear Extraction Kit from Panomics according to the manufacturer's instructions.

Akt = test: Insulin-induced Akt phosphorylation in palmitate-treated primary mouse hepatocytes; format: cell-based; conditions: HCs with normal p38 (Ad-LacZ)
Procedure: FIGS. 92A-D. Inhibition of CaMKII or p38α Improves Insulin-induced Akt Phosphorylation in Palmitate-treated Primary Hepatocytes. FIG. 92A. Primary HCs from WT mice were transduced with adeno-LacZ or -K43A-CaMKII at an MOI of 10 and then 24 h later incubated with either BSA control or 0.2 mM palmitate for 19 h, with the last 5 h in serum-free media. The cells were then treated with 100 nM insulin or vehicle control for 5 min, and lysates were probed for p-Akt, total Akt, and β-actin by immunoblot (left panel) or immunoprecipitated for IRS-1 and then assayed by immunoblot for the total level of IRS-1 or for phospho-Tyr (PY) (right panel). FIG. 92B. HCs from Mapk14^fl/fl mice were transduced with adeno-LacZ or -Cre and 24 h later incubated with palmitate and then insulin as in FIG. 92A. Lysates were probed for p-Akt, total Akt, β-actin (upper panel), p-GSK3β, total GSK3β, p-FoxO1 and total FoxO1 by immunoblot or immunoprecipitated for IR and IRS-1 and then assayed by immunoblot for the total level of the respective proteins or for phospho-Tyr (lower panel). FIG. 92C. Primary human HCs (metabolism-controlled) were transduced with adeno-LacZ or -K43A-CaMKII at an MOI of 30 and then 36 h later incubated with either BSA control or 0.2 mM palmitate for 10 h, with the last 5 h in serum-free media. […]

dach1 and dach2 mRNA = dach1 and dach2 mRNA in primary mouse hepatocytes; format: cell-based; conditions: WT HCs, 0.5 mM, 6 h
Procedure: FIG. 115. Palmitate induces dach1 and dach2 mRNA levels. Primary HCs from WT mice were treated with 0.5 mM palmitate for 6 h. RNA was assayed for dach1 and dach2 mRNA by RT-qPCR (*p<0.05; mean±S.E.M.).

TRB3 = TRB3 levels in primary mouse hepatocytes; format: cell-based; conditions: control HCs
Procedure: FIGS. 93A-E: Improvement in Insulin-induced Akt Phosphorylation and Glucose Homeostasis by CaMKII Deficiency are Abrogated by Restoring TRB3. FIG. 93A. HCs from Camk2g^fl/fl mice were transduced with adeno-LacZ or -Cre and then 24 h later incubated with BSA or palmitate (0.2 mM) for 19 h. Lysates were immunoblotted for TRB3 and β-actin. FIG. 93B. TRB3 and β-actin were probed in livers from DIO WT mice, Camk2g^−/− mice, or Camk2g^fl/fl mice treated with TBG-LacZ or TBG-Cre. Densitometric quantification of the immunoblot data is shown in the graph (*p<0.05; mean±S.E.M.). FIGS. 93C-E. DIO Camk2g^fl/fl mice were treated with TBG-Cre or TBG-LacZ, and five days later, half of the […] received adeno-TRB3, while the other half received adeno-LacZ control. Livers were assayed for p-Akt, total Aid, TRB3 and β-actin by immunoblotting after fasting the mice for 16 h and then re-feeding them for 4 h. 5 h fasting and fasted-refed blood glucose and plasma insulin were assayed after 4 weeks of treatment (Differing symbols indicate p<0.05; mean±S.E.M.). See also FIG. 99.

cytosolic free calcium = test: Calcium mobilization in primary hepatocytes (Fura-2 imaging); format: cell-based, mouse; conditions: co-/pre-treatment with inhibitor
Procedure: Mouse primary hepatocytes were plated on glass coverslips and loaded with 5 μM Fura-2 acetoxymethyl ester (Molecular Probes) in the presence of 0.025% (w/v) pluronic F127 (Sigma-Aldrich) in Media 199 (Mediatech) for 30 minutes. […] The ratio of fluorescence intensity at the two excitation wavelengths was calculated after subtracting background fluorescence. [Ca2+]I (cytosolic free calcium concentration) was calculated using a Fura-2 calcium imaging calibration kit (Invitrogen). Images were collected and analyzed using the MetaFluor software package (Universal Imaging Corp.). Graphs represent average responses from groups of 30-40 individual cells from representative single experiments. Bar graphs represent average responses (fold over average baseline) from 150-200 cells per condition. All experiments were repeated at least three times with similar results.

IP3R = IP3R activity in FAO hepatocytes (Inositol/ATP-induced calcium release assay); format: cell-based, rat
Source text: FIGS. 49A-S. The role of IP3R in forskolin/glucagon-induced G6Pase/PEPCK in cultured hepatocytes and in fasting blood glucose in vivo. FIG. 49 A,B. FSK-Induced G6Pase and PEPCK is Calcium-Dependent. FIG. 49C-D. IP3R Activity is Required for Forskolin- and Glucagon-Induced G6Pase and PEPCK (FAO rat hepatocyte cell line). FIG. 49E-F. IP3R Activity is Required for Forskolin-Induced G6Pase and PEPCK (primary murine hepatocytes). FIG. 49G-H. IP3R1 Anti-Sense Oligonucleotide Suppresses Forskolin-Induced G6Pase and PEPCK (primary murine hepatocytes). FIG. 49I. Forskolin Activates IP3R Activity in FAO Hepatocytes (Inositol/ATP-Induced Calcium Release Assay). FIG. 49J. The PKA Inhibitor H89 Suppresses Forskolin-Induced IP3R Activation. FIG. 49K-L. IP3R Activity is Required for Forskolin-Induced PGC1a. FIG. 49M-N. Calcineurin Inhibitory Peptide Suppresses Forskolin-Induced G6Pase and PEPCK. FIG. 49O. IP3R Activity is Required for Forskolin-Induced Calcineurin Activation. FIG. 49P-Q. IP3R Activity is Required for Forskolin-Induced TORC2 Dephosphorylation and Nuclear Localization. FIG. 49R. TORC2 Transduction Partially Restores Forskolin-Induced G6Pase in IP3R-Inhibited Hepatocytes. FIG. 49S. Xestospongin C Treatment Reduces Fasting Glucose Levels in C57BL/6J Mice.

ATF4 = test: Nuclear ATF4 in primary mouse hepatocytes; format: cell-based; conditions: control HCs
Procedure: FIGS. 94A-F: Improvement in Insulin-induced Akt Phosphorylation and Glucose Homeostasis by CaMKII Deficiency are Abrogated by Restoring ATF4. FIG. 94A. HCs from Camk2g^fl/fl mice were transduced with adeno-LacZ or -Cre. 24 h later, cells were incubated with tunicamycin (0.5 μg/ml) or vehicle control for 4 h. Nuclear lysates were immunoblotted for ATF4 and nucleophosmin (Np) as a loading control. FIG. 94B. Nuclear ATF4 and nucleophosmin (Np) were probed in livers from DIO Camk2g^fl/fl mice treated with TBG-Cre or TBG-LacZ or ob/ob mice treated with adeno-LacZ or -K43A-CaMKII. FIG. 94C. HCs from […] were transduced with adeno-LacZ or -Cre and then 4 h later, half of the adeno-Cre transduced cells received adeno-ATF4, while the other half received adeno-LacZ control. After 24 h, the cells were incubated with palmitate and then insulin-induced p-Akt was assayed as in FIG. 92. FIG. 94D. As in FIG. 94C, except that Trb3 mRNA was assayed by RT-qPCR (Bars with different symbols are different from each other and control, p<0.01; mean±S.E.M.). […] Livers were assayed for p-Akt, total Aid, β-actin and nuclear ATF4 and nucleophosmin (Np) by immunoblotting after insulin injection through portal vein. 5 h fasting blood glucose and plasma insulin were assayed after three weeks of treatment (Differing symbols indicate p<0.05; mean±S.E.M.). See also FIG. 100.

CCCCCCCCCCCCCCCC(=O)O [palmitate] was tested, and the “p-CaMKIIγ in HCs” value (CaMKII; ER stress activation) was “increased”, the “insulin-induced p-Akt signal” value (Akt) was “lowered” and the “dach1 and dach2 mRNA levels” value (dach1 and dach2 mRNA) was “induces”. For the same compound, the TRB3 levels (TRB3) was “increase”.

With Cl.Cl.O=S(=O)(NCCNCC=Cc1ccc(Br)cc1)c1cccc2cnccc12 [H89, N-[2-[[3-(4-Bromophenyl)-2-propenyl]amino]ethyl]-5-isoquinolinesulfonamide dihydrochloride] the “glucagon-induced CaMKII phosphorylation” value (CaMKII; HCs pre-treated with inhibitor, then glucagon) was “markedly inhibited”, the “cytosolic calcium mobilization in response to glucagon (and forskolin)” value (cytosolic free calcium) was “partially reversed” and the “Forskolin-Induced IP3R Activation” value (IP3R) was “Suppresses”.

In the case of tunicamycin, the ATF4 (ATF4) is reported as “increased”.
